Measured values as given in US20060009637A1, “Molecules as produced by endothermic chemical reactions with anhydrous D-ribose” (priority 2004, published 2006).
Values belong to the molecule of their own block, whether it stands above or below them.

Columns and labels:
solubility in water = assay type: physicochemical; details: for solubility in water: result in words, monohydrate
heart failure = details: people with heart failure; cited from earlier work
[1] = toxicity of the monohydrate of D-ribose

water needed to dissolve a kilogram of anhydrous D-ribose (solubility in water; per kilogram of anhydrous D-ribose, gives clear translucent amber viscous solution if enough time is allowed): less than 168 grams
Structure (SMILES): O=C[C@H](O)[C@H](O)[C@H](O)CO [anhydrous D-ribose, D-ribose]

Structure (SMILES): CN(CC(=O)O)C(=N)N [creatine]
ejection fraction (heart failure): did not improve
skeletal muscle action (heart failure): increasing both strength and endurance

solubility in water (solubility in water; listed as H2O-ribose product): exceptionally high
solubility in water (solubility in water): very soluble in water
Structure (SMILES): O.O=C[C@H](O)[C@H](O)[C@H](O)CO [ribose monohydrate, D-ribose monohydrate]
toxicity [1]: virtually no toxicity
